From patent US9480754B2, “Phospholipid ether analogs as cancer-targeting drug vehicles” (Cellectar Biosciences, Inc., priority 2014, dated 2016)

Tests used:
[1] = tested on: cancer cell lines (renal, ovarian, pancreatic, melanoma, prostate) vs normal human skin fibroblast; assay: CLR1501 uptake in cancer cell lines vs normal fibroblasts (confocal microscopy); type: cell-based; settings: 24 hours, 5 or 7.5 μM, in vitro
Excerpt: Human cancer cell lines were purchased from the American Type Culture Collection (ATCC). They included the following: Caki-2 (renal; clear cell carcinoma), HCT-116 (colorectal carcinoma); MES-SA/Dx5 (uterine sarcoma) [all maintained in McCoy's 5a medium supplemented with 10% fetal bovine serum (FBS)], Ovcar-3 (ovarian adenocarcinoma) [maintained in RPMI medium supplemented with 20% FBS], U87-MG (glioma) [maintained in minimum essential medium supplemented with 10% FBS], Mia Paca-2 (pancreatic carcinoma) (maintained in Dulbecco's modified Eagle's medium supplemented with 10% FBS), PC-3 (prostate carcinoma) (maintained in F-12K medium supplemented with 10% FBS), MDA-MB-231 (triple-negative mammary gland adenocarcinoma) (maintained in Leibovitz's medium supplemented with 10% FBS), and A549 (non-small cell lung carcinoma) (maintained in F-12 medium supplemented with 10% FBS). Normal human skin fibroblasts were purchased from ATCC and grown in Fibroblast Basal Medium PCS-201-030 supplemented with serum-free kit (Fibroblast Growth Kit-Serum-Free PCS-201-040). […]
All cells were maintained at 37° C. in appropriate medium supplemented with 10% FBS and 5% CO2. […] The emission signal of CLR1501 was detected using Alexa Fluor 488 filters (ex/em 480/520 nm). […]

[2] = tested on: human glioblastoma stemlike cells and serum-cultured human glioblastoma cells; settings: Weichert 2014, FIG. 2; cited from earlier work
[3] = tested on: MDA-MB-468, NCI-H1299, NCI-H460, Capan-2, MiaPaCa-1, HT29, HCT116 and PC-3 cancer cell lines; assay: Cell viability, panel of eight cancer cell lines; type: cell-based; settings: serial concentrations
Method: The cell lines were then measured for cell viability and reported as IC50 for each treatment.
In vivo, free paclitaxel is taken up by cancerous tumor cells at a much lower rate due to the non-specific nature of paclitaxel uptake.

MDA-MB-468 cells [4] = assay: Annexin V/PI flow cytometry, MDA-MB-468; type: cell-based; settings: MDA-MB-468, 1 uM, 48 hrs
MDA-MB-468 cells [5] = assay: Annexin V/PI flow cytometry, MDA-MB-468; type: cell-based
Method: (§1) Debris was eliminated from this analysis.
MDA-MB-468 cells, were also treated with CLR conjugates (CLR1606 and CLR1607) for 72 hours and with geldanamycin (“GEL”) for 48 hours.
(§2) CLR conjugates appear to require a longer treatment period with cells to induce cell death.

COLO 829 cells = assay: Annexin V/PI flow cytometry, COLO 829; type: cell-based
Method: as §1
COLO 829 cells, a melanoma cell line, were treated with […] (CLR1606 and CLR1607) for 72 hrs and GEL for 48 hours.
as §2

PANC-1 cells = assay: Annexin V/PI flow cytometry, PANC-1; type: cell-based; settings: table title 72 hours, GEL for 48 hours
Method: as §1
PANC-1 cells, a pancreatic cancer cell line, were treated with GEL conjugates (CLR1606 and CLR1607) for 72 hrs and GEL for 48 hours.

22RV1 cells = assay: Annexin V/PI flow cytometry, 22RV1; type: cell-based; settings: table title 72 hours, GEL for 48 hours
Method: as §1
22RV1 cells, a prostate cancer cell line, were treated with GEL conjugates (CLR1606 and CLR1607) for 72 hrs and GEL for 48 hours. Cell viability was 20.3%, 21.3%, 16.0%, 21.9%, 15.7%, 19.4%, and 28.1% after treatment with no drug, 1 μM CLR1606, 10 μM CLR1606, 1 μM CLR1607, 10 μM CLR1607, 100 nM GEL, and 1 μM GEL, respectively.

C6 glioma = assay: Rat C6 glioma model, tissue distribution of NM404; type: in vivo; settings: C6 glioma-bearing rats, 24 h after tail vein injection
Method: Materials and Methods: All animals were housed and handled in accordance with the University of Wisconsin Research Animal Resources Center guidelines. Rat C6 glioma cells were propagated in DMEM medium (Life Technologies, Gaithersburg, Md.) supplemented with 10% heat-inactivated FBS (BioWhittaker, Walkersville, Md.), 100 U/ml penicillin G, […] streptomycin, and 0.01 M HEPES (Life Technologies, Gaithersburg, Md.). Intracranial tumor implantation was performed as described previously. Cohen J D, et al., Intracranial C6 glioma model in adult Wistar-Furth rats. J Neuro Oncol 1990 8(1):95-6. Briefly, 1×10^6 C6 cells were resuspended in […] 1.2% methylcellulose and injected into the frontal lobes of anesthetized female Wistar rats (Harlan, Indianapolis, Ind.). Sham-operated animals received intracranial injections of an equal volume of methylcellulose without tumor cells.
Imaging Studies: Ten days after implantation, the presence of intracranial tumors was confirmed with MRI. […]
NM404 [18-(4-iodophenyl)-octadecylphosphocholine] […] In addition, normal brain, blood, kidney, liver, spleen, thyroid, and tumor tissues were weighed, and radioactivity counted in a gamma counter. The tissue distribution of radioactivity was then correlated to brain histology.

PC-3 cells = assay: 125I-CLR1404 uptake after lipid raft disruption with filipin III; type: cell-based; settings: PC-3 cells pretreated with 2 μg/ml filipin III 15 min, then 125I-CLR1404 1 h; vs untreated control cells
Method: PC-3 cells were pretreated with either 2 μg/ml filipin III or vehicle for 15 min, then washed and incubated with 2 μCi of ^125I-CLR1404 for 1 h. The media was removed and the cells were washed with phosphate buffered saline containing 0.1% bovine serum albumin, trypsinized, then split into two samples for determination of cell number by DNA content (A280 compared to a cell line specific standard curve) and counts per minute using a Gamma Counter (Perkin Elmer).
This supports the hypothesis that CLR1404 uses lipid rafts as portals of entry into cancer cells.

[6] = MDA-MB-468, 1 uM, 72 hrs (Table 3)

In the case of `C[N+](C)(C)CCOP(=O)([O-])OCCCCCCCCCCCCCCCCCCc1ccc(C2=C3C=CC=[N+]3[B-](F)(F)n3cccc32)cc1` [CLR1501], the “preferential uptake in cancer cell lines compared to normal fibroblasts” value [1] is given as “five to nine-fold” and the “uptake compared to normal human astrocytes and fetal human neural stem cells” value [2] is given as “enhanced uptake”.

For `CC(=O)O[C@H]1C(=O)[C@@]2(C)[C@H]([C@H](OC(=O)c3ccccc3)[C@]3(O)C[C@H](OC(=O)[C@H](OC(=O)CCCC(=O)Nc4ccc(CCCCCCCCCCCCCCCCCCOP(=O)([O-])OCC[N+](C)(C)C)cc4)[C@@H](NC(=O)c4ccccc4)c4ccccc4)C(C)=C1C3(C)C)[C@]1(OC(C)=O)CO[C@@H]1C[C@@H]2O` [CLR1601], the “ability to reduce cancer cell line viability” value [3] was “capable of reducing cell viability”, the “Late Apoptotic” value (MDA-MB-468 cells [4]) was 6 % of total cells and the Live (MDA-MB-468 cells [4]) was 79.4 % of total cells. The “Early Apoptotic” value (MDA-MB-468 cells [5]; [6]) was 9.83 % of total cells, the Live (MDA-MB-468 cells [5]; [6]) was 17 % of total cells and the Live (MDA-MB-468 cells [5]; MDA-MB-468, 5 uM, 72 hrs) was 17.8 % of total cells.

In the case of `CC(=O)O[C@H]1C(=O)[C@]2(C)[C@@H](OC(=O)NCCCC(=O)Nc3ccc(CCCCCCCCCCCCCCCCCCOP(=O)([O-])OCC[N+](C)(C)C)cc3)C[C@H]3OC[C@@]3(OC(C)=O)[C@H]2[C@H](OC(=O)c2ccccc2)[C@]2(O)C[C@H](OC(=O)[C@H](O)[C@@H](NC(=O)c3ccccc3)c3ccccc3)C(C)=C1C2(C)C` [CLR1602], the “ability to reduce cancer cell line viability” value [3] is reported as “not capable of significantly reducing cancer cell line viability”.

For `CC(=O)O[C@H]1C(=O)[C@@]2(C)[C@H]([C@H](OC(=O)c3ccccc3)[C@]3(O)C[C@H](OC(=O)[C@H](OC(=O)OCCCCC(=O)Nc4ccc(CCCCCCCCCCCCCCCCCCOP(=O)([O-])OCC[N+](C)(C)C)cc4)[C@@H](NC(=O)c4ccccc4)c4ccccc4)C(C)=C1C3(C)C)[C@]1(OC(C)=O)CO[C@@H]1C[C@@H]2O` [CLR1603], the “ability to reduce cancer cell line viability” value [3] was “capable of reducing cell viability”, the “Early Apoptotic” value (MDA-MB-468 cells [4]) was 1.4 % of total cells and the Live (MDA-MB-468 cells [4]) was 81.4 % of total cells. The Live (MDA-MB-468 cells [5]; [6]) was 22.2 % of total cells, the Necrotic (MDA-MB-468 cells [5]; [6]) was 22 % of total cells and the Live (MDA-MB-468 cells [5]; MDA-MB-468, 5 uM, 72 hrs) was 19.7 % of total cells.

In the case of `COC1=C2C[C@@H](C)C[C@H](OC)[C@H](O)[C@@H](C)/C=C(\C)[C@H](OC(N)=O)[C@@H](OC)/C=C\C=C(/C)C(=O)NC(=CC1=O)C2=O` [GEL, geldanamycin], the Live (COLO 829 cells; COLO 829, 100 nM, 48 hrs (Table 9)) is reported as 36.1 % of total cells, the Live (COLO 829 cells; COLO 829, 1 uM, 48 hrs (Table 9)) is reported as 24.6 % of total cells and the Live (COLO 829 cells; COLO 829, GEL 100 nM, Table 5 title 72 hours, GEL for 48 hours) is reported as 32.4 % of total cells. The Live (COLO 829 cells; COLO 829, GEL 1 uM, Table 5 title 72 hours, GEL for 48 hours) was 18.6 % of total cells, the Live (PANC-1 cells; PANC-1, GEL 100 nM) was 23.3 % of total cells and the Live (PANC-1 cells; PANC-1, GEL 1 uM) was 18.9 % of total cells. For the same molecule, the Live (22RV1 cells; 22RV1, GEL 100 nM) was 19.4 % of total cells, the Live (22RV1 cells; 22RV1, GEL 1 uM) was 28.1 % of total cells and the Live (MDA-MB-468 cells [5]; MDA-MB-468, GEL 1 uM, table title 72 hours, text: geldanamycin for 48 hours) was 26.2 % of total cells.

With `C[N+](C)(C)CCOP(=O)([O-])OCCCCCCCCCCCCCCCCCCc1ccc(I)cc1` [NM404, 18-(4-iodophenyl)-octadecylphosphocholine] the “Tumor to brain ratio (% injected dose/g)” value (C6 glioma) was 10.5 and the “reduction of uptake when lipid rafts are disrupted” value (PC-3 cells) was ~40%.
